In patent publication US8119839B2, “Carboxylic acid and antidepressant composition containing the same as active ingredient” (Yamada Apiculture Center, Inc., priority 2007, dated 2012):

How the values were obtained:
Assay type in all cases: in vivo, mouse
ovariectomy model mice [1] = assay: Forced swimming test, modified (Test Example 2); conditions: oral for 14 days; for Immobility Time (second) Mean: 2 hours after last dose, 2nd minute to 4th minute, mean of 6 animals; for antidepressant effect: conclusion from Table 1 and FIG. 11
Protocol: Test Example 1 was partly modified as below, and a forced swimming test was performed to evaluate an antidepressant effect using the compounds (DDA-7 and DDA-14 to DDA-16) prepared in Preparation Examples 3 to 6 as test compounds. Regarding DDA-14 and DDA-15, a naturally occurring racemic form thereof has been reported, and thus, similarly to the mixture ratio by weight thereof, DDA-14 and DDA-15 were mixed at the ratio of 3:1 and prepared (2E,9S+9R)-9-hydroxy-2-decenoic acid (racemic form).
The experimental animals (ovariectomy model mice), to which each test compound was administered for 14 days (the first day of the administration was the following day after the day the ovaries were removed), were forced to swim. A 0.32 mg amount of compound DDA-7, 0.29 mg and 0.088 mg of DDA-14 and DDA-15, respectively, and 0.29 mg of DDA-16 were each individually dissolved in 80 ml of ion exchange water for administration. On the 14th day from the day each test compound administration was commenced, and 2 hours after the test compound was orally administered, each of the experimental animals was placed into a water tank, and the swimming time was measured for 10 minutes (test group). As a control experiment, the same procedure was performed as above, except that distilled water for injection was orally administered in place of the test compounds to each of the experimental animals (ovariectomy model mouse) in an amount of 0.1 ml per 10 g of body weight (control group).
The ten-minute swimming time was divided into one-minute periods to conduct analysis.

ovariectomy model mice [2] = assay: Forced swimming test (Test Example 1)
Protocol: A forced swimming test has been widely used in the preclinical assessment of the antidepressant effect, and clinically effective antidepressants are known to shorten the immobility time (Porsort et al., Nature, 266, 730-732, 1977).
Therefore, the D4-II-3E-4 fraction ((2E)-9,10-dihydroxy-2-decenoic acid) prepared in Preparation Example 1 was administered to the animal model to undergo a forced swimming test (Nature, 266:730-732, 1977), and the antidepressant effect of the compound was evaluated.
ICR female mice (9 weeks old; weight: 29 to 33 g) were used as experimental animals. All of the mice were group-housed (10 mice per cage), and the feed and white flake bedding were exchanged once per week. The surgery to remove the ovaries was performed according to the following method.
Under pentobarbital anesthesia (65 mg/kg, i.p.), a 5 mm incision was made in the dorsal abdomen of a mouse, and the ovaries was temporarily exposed to the outside of the body. After ligation between the ovaries and uterus end (i.e. oviducts), the ovaries were dissected. Thereafter, the oviducts were promptly returned to the intraperitoneal cavity, and the abdominal wall and the skin were sutured.
A 0.25 mg amount of the D4-II-3E-4 fraction (a freeze-dried product) prepared in Preparation Example 1 was dissolved in 50 ml of ion exchange water to prepare a suspension. […]
Water at a temperature of 25° C. was introduced into a clear measuring cylinder made of polycarbonate (inner diameter: 10 cm; height: 25 cm) so that the water surface level was adjusted to 10 cm from the bottom. Each mouse was forced to swim for 6 minutes while being recorded by a high-sensitivity video system. Thereafter, the recorded image was observed, and by means of an event recorder, the time (in seconds) during which the mouse was floating in an immobile state was measured (an analysis was made for the duration of the 4 minutes from the second minute onward).

ovariectomy model mice [3] = assay: Uterus weight measurement after forced swimming test (Test Example 1); conditions: dose that shortens the immobility time, wet weight, FIG. 9
Protocol: After conducting the forced swimming test (after completing the observation of the immobility time), an overdose of pentobarbital (100 mg/kg or more) was administered to each of the mice to cause them to stop breathing, and the mice were sacrificed. Then, the uterus was collected from each of the mice through an incision in the abdomen. The collected uterus was spread onto a filter paper, and after the serosa and blood vessel adhering to the uterus were removed, the weight of the uterus was promptly measured on a wet basis with an analytical balance.

Row | SMILES | Immobility Time (second) Mean (ovariectomy model mice [1]) [s] | antidepressant effect (ovariectomy model mice [1]) | further results
1 | CC(O)CCCCC/C=C/C(=O)O (racemic) [DDA14 + DDA15, (2E,9S+9R)-9-hydroxy-2-decenoic acid] | 98.82 | exhibit an antidepressant effect | –
2 | O=C(O)C=CCCCCCCCO [10-hydroxydecenoic acid, reference compound] | – | – | antidepressant effect (ovariectomy model mice [2]; oral 70, 140, 210 mg/kg/day, FIG. 10): does not exhibit an antidepressant effect
3 | O=C(O)/C=C/CCCCCC(O)CO (stereo not shown) [D4-II-3E-4 fraction, (2E)-9,10-dihydroxy-2-decenoic acid] | – | – | immobility time compared with control group (ovariectomy model mice [2]; 0.25 mg in 50 ml water, 0.1 ml per 10 g body weight orally once a day for 2 weeks, 4 minutes from the second minute onward, FIG. 8): significantly shorter; antidepressant effect (ovariectomy model mice [2]; oral, once a day for 2 weeks, conclusion from FIG. 8): exhibits an antidepressant effect; uterus weight compared with control group (ovariectomy model mice [3]): a difference in the uterus weights was not recognized
4 | O=C(O)/C=C\CCCCC[C@@H](O)CO [DDA-7, (2Z,9R)-9,10-dihydroxy-2-decenoic acid] | 80.14 | exhibit an antidepressant effect | –
5 | CC(=O)OCCCC/C=C/C(=O)O [DDA-16, (2E)-7-acetoxy-2-heptenoic acid] | 87.14 | exhibit an antidepressant effect | –
